The conditions of this data set: Crystal; DTA.

± gives the expanded uncertainty stated by the source.

For the molecule `Cc1oncc1C(=O)Nc1ccc(C(F)(F)F)cc1`, the Normal melting temperature was 169.00 ± 2 °C.
